Holding throughout (format): cell-based
In experiment [1] the test system is tumour necrosis factor-α (TNF-α) release from lipopolysaccharide (LPS) stimulated isolated human peripheral mononuclear cells (PBMC). Put plainly: Inhibition of TNF-α release from LPS stimulated isolated human PBMC. The note with it: LPS stimulated human PBMC; 1 h pre-incubation, 18 hours after LPS; TNF-α by ELISA. The method in brief:
(§1)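 Human PBMC from EDTA blood of healthy donors, at 1×10^6 lymphocytes/ml in HBSS/HEPES/BSA buffer, were preincubated with compound (1% DMSO final) for 1 h at 37° C, then stimulated with LPS (added as 100 ng/ml solution) for 18 hours. Supernatant TNF-α was measured by ELISA, and IC50 was derived from dose-response curves.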
(An ELISA detects its analyte on a solid surface through an enzyme-linked reagent.)

The target in a further experiment is T1, human GR (Homo sapiens, UniProt P04150).
T1 construct: SW1353 naturally expresses human GR; endogenous in cells; host or cells: human chondrosarcoma cell-line SW1353 stably transfected with an MMTV-luciferase reporter construct
T1 sequence (P04150 1-777): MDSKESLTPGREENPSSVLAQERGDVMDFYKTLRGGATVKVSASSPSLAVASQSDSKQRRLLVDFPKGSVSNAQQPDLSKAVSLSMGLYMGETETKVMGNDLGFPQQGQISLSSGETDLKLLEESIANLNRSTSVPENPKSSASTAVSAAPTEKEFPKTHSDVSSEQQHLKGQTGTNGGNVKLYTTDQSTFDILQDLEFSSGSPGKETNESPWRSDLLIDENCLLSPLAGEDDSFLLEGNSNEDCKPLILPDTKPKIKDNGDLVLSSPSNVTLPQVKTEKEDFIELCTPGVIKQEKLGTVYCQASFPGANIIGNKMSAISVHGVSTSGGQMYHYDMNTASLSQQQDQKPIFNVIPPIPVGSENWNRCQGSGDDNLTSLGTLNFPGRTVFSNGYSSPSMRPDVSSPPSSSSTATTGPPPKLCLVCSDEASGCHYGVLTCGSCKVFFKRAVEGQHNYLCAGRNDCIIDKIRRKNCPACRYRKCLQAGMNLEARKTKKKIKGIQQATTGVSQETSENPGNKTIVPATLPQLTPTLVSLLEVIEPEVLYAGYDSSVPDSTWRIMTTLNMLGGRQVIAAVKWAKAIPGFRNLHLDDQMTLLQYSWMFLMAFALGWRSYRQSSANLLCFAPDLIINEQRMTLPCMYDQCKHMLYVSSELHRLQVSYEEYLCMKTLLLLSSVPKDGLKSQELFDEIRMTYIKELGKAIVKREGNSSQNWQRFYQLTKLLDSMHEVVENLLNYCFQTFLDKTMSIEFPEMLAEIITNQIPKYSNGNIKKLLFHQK
Put plainly: GR agonist potency, MMTV-luciferase reporter in SW1353 cells. The note with it: human chondrosarcoma cell-line SW1353 stably transfected with MMTV-luciferase reporter; approx. 18 hours; data as percentage of 1 μM dexamethasone positive control. The gist of the method:
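SW1353 chondrosarcoma cells stably carrying MMTV-luciferase, endogenous GR, exposed to compound ~18 h at 37 °C. Luminescence expressed as percent of 1 μM dexamethasone response; EC50 estimated from dose-response curves.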
In general terms: A reporter such as luciferase makes a cellular process visible.

A short description of experiment [2]: Inhibition of TNF-α release from LPS stimulated isolated human PBMC. The note with it: Homo sapiens, PBMC, read-out: IC50 (nM) for inhibition of TNF-α release. The method in brief: as §1

By IC50 is commonly meant the concentration that inhibits the measured activity by half. Molecule `CC12C=CC(=O)C=C1CCC1C3CCC(OC(=O)c4ccc(Cc5ccccc5)cc4)(C(=O)OCC#N)C3(C)CC(O)C12F` (stereo not shown) [Example 9] had an IC50 in experiment [1] of 0.21 nM.
Usually EC50 stands for the concentration that produces a half-maximal response. Low readings indicate an effect from little substance, high ones a need for much substance. As to `CC12C=CC(=O)C=C1CCC1C3CCC(OC(=O)c4ccc(Sc5ccc(O)cc5)cc4)(C(=O)OCC#N)C3(C)CC(O)C12F` (stereo not drawn) [Example 18, cyanomethyl (11beta,17alpha)-9-fluoro-11-hydroxy-17-({4-[(4-hydroxyphenyl)thio]benzoyl}oxy)-3-oxoandrosta-1,4-d iene-17-carboxylate], the concentration giving a half-maximal response (EC50) at human GR stood at 34.9 nM. The molecule further had an IC50 in experiment [1] of 0.138 nM.
Molecule `CC12C=CC(=O)C=C1CCC1C3CCC(OC(=O)c4ccc(Oc5ccc(Cl)c(O)c5)cc4)(C(=O)OCC#N)C3(C)CC(O)C12F` (stereo not drawn) [Example 34, cyanomethyl (11beta,17alpha)-17-{[4-(4-chloro-3-hydroxyphenoxy)-benzoyl]oxy}-9-fluoro-11-hydroxy-oxoandrosta-1,4-diene-17-carboxylate] gave a concentration for a half-maximal effect (EC50) on human GR of 100 nM. Further, the concentration for half-maximal inhibition (IC50) in experiment [1] stood at 0.278 nM.
In turn, `C[C@@H]1C[C@H]2[C@@H]3C[C@H](F)C4=CC(=O)C=C[C@]4(C)[C@@]3(F)[C@@H](O)C[C@]2(C)[C@@]1(OC(=O)c1ccc(Oc2ccc(Cl)c(O)c2)cc1)C(=O)OCF` [Example 41, Fluoromethyl (6alpha,11beta,16alpha,17alpha)-17-{[4-(4-chloro-3-hydroxyphenoxy)benzoyl]oxy}-6,9-difluoro-11-hydroxy-16-methyl-3-oxoandrosta-1,4-diene-17-carboxylate] returned an EC50 on human GR of 7.73 nM. Moreover, the IC50 in experiment [2] was found to be 0.032 nM.
Regarding `C[C@@H]1C[C@H]2[C@@H]3C[C@H](F)C4=CC(=O)C=C[C@]4(C)[C@@]3(F)[C@@H](O)C[C@]2(C)[C@@]1(OC(=O)c1ccc(Oc2ccc(Cl)c(O)c2)cc1)C(=O)OCC#N` [Example 42, Cyanomethyl (6alpha,11beta,16alpha,17alpha)-17-{[4-(4-chloro-3-hydroxyphenoxy)benzoyl]oxy}-6,9-difluoro-11-hydroxy-16-methyl-3-oxoandrosta-1,4-diene-17-carboxylate], on human GR, the EC50 turned out to be 24.4 nM. For the same molecule, in experiment [2], the IC50 was 0.443 nM.
Taken in the same sequence, the figures for `C[C@@H]1C[C@H]2[C@@H]3CCC4=CC(=O)C=C[C@]4(C)[C@@]3(F)[C@@H](O)C[C@]2(C)[C@@]1(OC(=O)c1ccc(Oc2ccc(O)c(Cl)c2)cc1)C(=O)SCF` [Example 43, (11beta,16alpha,17alpha)-9-fluoro-17-{[(fluoromethyl)thio]carbonyl}-11-hydroxy-16-methyl-3-oxoandrosta-1,4-dien-17-yl 4-(3-chloro-4-hydroxyphenoxy)benzoate] were 26.4 nM and 0.06 nM.
Molecule `C[C@@H]1C[C@H]2[C@@H]3C[C@H](F)C4=CC(=O)C=C[C@]4(C)[C@@]3(F)[C@@H](O)C[C@]2(C)[C@@]1(OC(=O)c1ccc(Oc2ccc(O)c(Cl)c2)cc1)C(=O)OCF` [Example 44, Fluoromethyl (6alpha,11beta,16alpha,17alpha)-17-{[4-(3-chloro-4-hydroxyphenoxy)benzoyl]oxy}-6,9-difluoro-11-hydroxy-16-methyl-3-oxoandrosta-1,4-diene-17-carboxylate] yielded a concentration giving a half-maximal response (EC50) on human GR of 6.7 nM. Further, in experiment [2], the IC50 turned out to be 0.029 nM.
On human GR, `C[C@@H]1C[C@H]2[C@@H]3C[C@H](F)C4=CC(=O)C=C[C@]4(C)[C@@]3(F)[C@@H](O)C[C@]2(C)[C@@]1(OC(=O)c1ccc(Oc2ccc(O)c(Cl)c2)cc1)C(=O)OCC#N` [Example 45, cyanomethyl(6alpha,11beta,16alpha,17alpha)-17-{[4-(3-chloro-4-hydroxyphenoxy)benzoyl]oxy}-6,9-difluoro-11-hydroxy-16-methyl-3-oxoandrosta-1,4-diene-17-carboxylate] gave an EC50 of 21.3 nM. Besides, in experiment [2], the 50% inhibitory concentration (IC50) came out at 0.155 nM.
`CSc1ccc(Sc2ccc(C(=O)O[C@]3(C(=O)OCC#N)[C@H](C)C[C@H]4[C@@H]5C[C@H](F)C6=CC(=O)C=C[C@]6(C)[C@@]5(F)[C@@H](O)C[C@@]43C)cc2)cc1` [Example 46, Cyanomethyl (6alpha,11beta,16alpha,17alpha)-6,9-difluoro-11-hydroxy-16-methyl-17-[(4-{[4-(methylthio)phenyl]thio}benzoyl)oxy]-3-oxoandrosta-1,4-diene-17-carboxylate] returned a 50% effective concentration (EC50) on human GR of 44.3 nM. In addition, the IC50 in experiment [2] is 0.372 nM.
Consider `CSc1cccc(Oc2ccc(C(=O)O[C@]3(C(=O)OCC#N)[C@H](C)C[C@H]4[C@@H]5C[C@H](F)C6=CC(=O)C=C[C@]6(C)[C@@]5(F)[C@@H](O)C[C@@]43C)cc2)c1` [Example 47, Cyanomethyl (6alpha,11beta,16alpha, 17alpha)-6,9-difluoro-11-hydroxy-16-methyl-17-({4-[3-(methylthio)phenoxy]benzoyl}oxy)-3-oxoandrosta-1,4-diene-17-carboxylate], for which a half-maximal effect on human GR (EC50) was put at 25.2 nM. In experiment [2], the concentration for half-maximal inhibition (IC50) turned out to be 0.731 nM.
`CSc1ccc(Oc2ccc(C(=O)O[C@]3(C(=O)OCC#N)[C@H](C)C[C@H]4[C@@H]5C[C@H](F)C6=CC(=O)C=C[C@]6(C)[C@@]5(F)[C@@H](O)C[C@@]43C)cc2)cc1` [Example 48, Cyanomethyl (6alpha,11beta,16alpha, 17alpha)-6,9-difluoro-11-hydroxy-16-methyl-17-({4-[4-(methylthio)phenoxy]benzoyl}oxy)-3-oxoandrosta-1,4-diene-17-carboxylate] came in with a concentration for a half-maximal effect (EC50) at human GR of 14.2 nM. Further, in experiment [2], the half-inhibitory concentration (IC50) was determined as 0.09 nM.
With `CSc1cccc(Sc2ccc(C(=O)O[C@]3(C(=O)OCC#N)[C@H](C)C[C@H]4[C@@H]5C[C@H](F)C6=CC(=O)C=C[C@]6(C)[C@@]5(F)[C@@H](O)C[C@@]43C)cc2)c1` [Example 49, Cyanomethyl (6alpha,11beta,16alpha, 17alpha)-6,9-difluoro-11-hydroxy-16-methyl-17-[(4-{[3-(methylthio)phenyl]thio}benzoyl)oxy]-3-oxoandrosta-1,4-diene-17-carboxylate], a half-maximal response at human GR (EC50) required 90.8 nM. Also, in experiment [2], the IC50 stood at 0.738 nM.
Taken in the same sequence, the figures for `CSc1ccc(Sc2ccc(C(=O)O[C@]3(C(=O)OCF)[C@H](C)C[C@H]4[C@@H]5C[C@H](F)C6=CC(=O)C=C[C@]6(C)[C@@]5(F)[C@@H](O)C[C@@]43C)cc2)cc1` [Example 50, Fluoromethyl (6alpha,11beta,16alpha, 17alpha)-6,9-difluoro-11-hydroxy-16-methyl-17-[(4-{[4-(methylthio)phenyl]thio}benzoyl)oxy]-3-oxoandrosta-1,4-diene-17-carboxylate] were 11.5 nM and 0.052 nM.
Consider `CSc1cccc(Oc2ccc(C(=O)O[C@]3(C(=O)OCF)[C@H](C)C[C@H]4[C@@H]5C[C@H](F)C6=CC(=O)C=C[C@]6(C)[C@@]5(F)[C@@H](O)C[C@@]43C)cc2)c1` [Example 51, Fluoromethyl (6alpha,11beta,16alpha, 17alpha)-6,9-difluoro-11-hydroxy-16-methyl-17-({4-[3-(methylthio)phenoxy]benzoyl}oxy)-3-oxoandrosta-1,4-diene-17-carboxylate], for which the midpoint of the response at human GR, the EC50, lay at 8.7 nM. For the same molecule, in experiment [2], the IC50 came to 0.057 nM.
For `CSc1ccc(Oc2ccc(C(=O)OC3(C(=O)OCF)C(C)CC4C5CC(F)C6=CC(=O)C=CC6(C)C5(F)C(O)CC43C)cc2)cc1` (stereo not drawn) [Example 52, Fluoromethyl (6alpha,11beta,16alpha, 17alpha)-6,9-difluoro-11-hydroxy-16-methyl-17-({4-[4-(methylthio)phenoxy]benzoyl}oxy)-3-oxoandrosta-1,4-diene-17-carboxylate], the concentration for a half-maximal effect (EC50) on human GR was determined as 6.05 nM. Inhibition in experiment [1] was half-maximal at 0.033 nM (IC50).
`CSc1cccc(Sc2ccc(C(=O)O[C@]3(C(=O)OCF)[C@H](C)C[C@H]4[C@@H]5C[C@H](F)C6=CC(=O)C=C[C@]6(C)[C@@]5(F)[C@@H](O)C[C@@]43C)cc2)c1` [Example 53] returned an EC50 at human GR of 11.8 nM. Also, in experiment [2], the half-maximal inhibitory concentration (IC50) came to 0.086 nM.

(Values after patent US20100303758A1, “Novel Glucocorticoid Receptor Agonists” (priority 2009, published 2010).)
